Measured values published in ChEMBL document CHEMBL5370632, “Expanding the Chemical Space: New Approach to Cell-Permeable Drugs” (ACS Med Chem Lett, 2023).

Key:
K562 [1] = assay: Antiproliferative activity against human K562 cells expressing ABL T315I mutant assessed as inhibition of cell growth incubated for 3 days by celltiter-glo 2.0 assay; format: functional, cell-based; conditions: K562, 72 h
Bcr/Abl fusion protein [2] = target: Bcr/Abl fusion protein (Homo sapiens, UniProt P00519, T315I); assay: Inhibition of human BCR-ABL1 T315I mutant using Tyr2 peptide as substrate incubated for 1 hrs by FRET based Z-LYTE assay; format: protein assay
Bcr/Abl fusion protein [3] = target: Bcr/Abl fusion protein (Homo sapiens, UniProt P00519); format: protein assay
K562 [4] = assay: Antiproliferative activity against human K562 cells assessed as inhibition of cell growth incubated for 3 days by celltiter-glo 2.0 assay; format: functional, cell-based; conditions: K562, 72 h
K562 [5] = assay: cells; conditions: Homo sapiens, K562, 72 h
K562 [6] = assay: cells; conditions: Homo sapiens, K562, 72 h; remark: listed apart in the source

| EC50 (K562 [1]) [nM] | EC50 (Bcr/Abl fusion protein [2]) [nM] | EC50 (Bcr/Abl fusion protein [3]) [nM] | EC50 (K562 [4]) [nM] | EC50 (K562 [5]) [nM] | EC50 (K562 [6]) [nM] | Structure (SMILES) |
| --- | --- | --- | --- | --- | --- | --- |
| 26.3 | 64 | 3.57 | 0.87 | – | – | Cc1ccc(C(=O)Nc2ccc(CN3CCN(C(=O)CCOCCOCCOCCOCCOCCOCCOCCOCCOCCOCCOCCOCCOCCOCCOCCOCCOCCOCCOCCOCCOCCOCCOCCOCCNC(=O)C4CCN(c5ncc(C(=O)Nc6ccc(OC(F)(F)Cl)cc6)cc5-c5ccn[nH]5)CC4)CC3)c(C(F)(F)F)c2)cc1C#Cc1cnc2cccnn12 |
| > 300 | 23.8 | 0.8 | 2.49 | – | – | Cc1nc(Nc2ncc(C(=O)Nc3c(C)cccc3Cl)s2)cc(N2CCN(C(=O)CCOCCOCCOCCOCCOCCOCCOCCOCCOCCOCCNC(=O)C3CCN(c4ncc(C(=O)Nc5ccc(OC(F)(F)Cl)cc5)cc4-c4ccn[nH]4)CC3)CC2)n1 |
| > 300 | 7.23 | 0.44 | 2.47 | – | – | Cc1nc(Nc2ncc(C(=O)Nc3c(C)cccc3Cl)s2)cc(N2CCN(C(=O)CCOCCOCCOCCOCCOCCOCCOCCOCCOCCOCCOCCOCCNC(=O)C3CCN(c4ncc(C(=O)Nc5ccc(OC(F)(F)Cl)cc5)cc4-c4ccn[nH]4)CC3)CC2)n1 |
| – | – | – | – | 0.26 | 12 | Cc1nc(Nc2ncc(C(=O)Nc3c(C)cccc3Cl)s2)cc(N2CCN(CCO)CC2)n1 [DASATINIB] |
